# Reference: US10221168B1, “Small-compound enhancers for functional O-mannosylation of alpha-dystroglycan, and uses thereof” (priority 2015, dated 2019)
# System: FOG of α-DG on the cell surfaces
# Assay: Cell-based HTS/HCS assay, IIH6 antibody as probe (EC1.5)
# Settings: concentration of the compound required to enhance the FOG of α-DG by 50% over the controls; cell-based assays in vitro
# Source text: Protein glycosylation is a multiple-step process that requires a large number of proteins in the secretory pathway of the cells. Thus we chose cell-based assay because our goal is to identify enhancer the FOG of α-DG on the cell surfaces. The assay system is HTS/HCS friendly and can adapt to various cell lines including myotubes as well as various readout methods including AlphaScreen, fluorescence density and HCS/fluorescence imaging. The standard operation protocol (SOP) for adhesion cells is described below and the FIG. 1 illustrates the assay process using myoblasts as the controls and screening cells and the IIH6 antibody as the probe. Other adhesion cells such CHO (Chinese hamster ovary) cell line can be implemented into this assay by simply removing the differentiation step.
# Cell cultures: All cells are cultured at 37° C., 5% CO2, in appropriate media (F-12 for epithelial cells and DMEM for myoblasts) supplement with 10-20% fetal calf serum (FCS) and 1% antibiotics. […] The cells will be detached with trypsin EDTA and suspended in the cell culture media. The cells will be counted and seeded into the multiple-well plates as desired. Myotubes formation: When the myoblasts reach confluence, change the growth media to differential media (DEME with 2% horse serum) and incubate for 4-5 days.
# The cells were fixed, permeablized, and then blocked with 10% BSA in PBS for 1 hour. […] After washing the cells with PBS for 2 times, the DAPI was used to stain the cells for 15 mins and wash 3 times with PBS. The images were captured with an inverted Olympus fluorescent microscope. For small compound localization experiment, the cells are incubated with the biotin conjugated compounds and then the cells were washed and incubated with streptavidin-Dye and then images will be captured to see the location of the compound-target-protein.
# H, EC1.5<5 μM; M, EC1.5-20 μM; L, EC1.5 20-50 μM; VL, EC1.5>50 μM.
row,Compound,Activity (EC1.5)
1,"c1csc(Cn2nncc2CN2CCN(c3nc4ccccc4s3)CC2)c1 [Compound 1, 2-(4-((1-(thiophen-2-ylmethyl)-1H-1,2,3-triazol-5-yl)methyl)piperazin-1-yl)benzothiazole]",L (EC1.5 20-50 μM)
2,"c1csc(Cn2nnnc2CN2CCN(c3nc4ccccc4s3)CC2)c1 [Compound 2, 2-(4-((1-(thiophen-2-ylmethyl)-1H-tetrazol-5-yl)methyl)piperazin-1-yl)benzothiazole]",M (EC1.5-20 μM)
3,"CC(c1nnnn1Cc1cccs1)N1CCN(c2nc3ccccc3s2)CC1 (stereo not shown) [Compound 3, 2-(4-(1-(1-(thiophen-2-ylmethyl)-1H-tetrazol-5-yl)ethyl)piperazin-1-yl)benzothiazole]",M (EC1.5-20 μM)
4,"CCC(c1nnnn1Cc1ccco1)N1CCC(c2nc3ccccc3s2)CC1 (stereo not shown) [Compound 4, 2-(1-(1-(1-(furan-2-ylmethyl)-1H-tetrazol-5-yl)propyl)piperidin-4-yl)benzothiazole]",M (EC1.5-20 μM)
5,"CCC(c1nnnn1Cc1ccco1)N1CCN(c2nc3ccccc3s2)CC1 (stereo not shown) [Compound 5, 2-(4-(1-(1-(furan-2-ylmethyl)-1H-tetrazol-5-yl)propyl)piperazin-1-yl)benzothiazole]",M (EC1.5-20 μM)
6,"CCC(c1nnnn1Cc1cccs1)N1CCN(c2nc3ccccc3s2)CC1 (stereo not shown) [Compound 6, 2-(4-(1-(1-(thiophen-2-ylmethyl)-1H-tetrazol-5-yl)propyl)piperazin-1-yl)benzothiazole]",M (EC1.5-20 μM)
7,"CCC(c1nnnn1Cc1cccs1)N1CCN(c2nc3ccccc3o2)CC1 (stereo not shown) [Compound 7, 2-(4-(1-(1-(thiophen-2-ylmethyl)-1H-tetrazol-5-yl)propyl)piperazin-1-yl)benzoxazole]",M (EC1.5-20 μM)
8,"CCC(c1nnnn1Cc1cccs1)N1CCC(c2nc3ccccc3s2)CC1 (stereo not shown) [Compound 8, 2-(1-(1-(1-(thiophen-2-ylmethyl)-1H-tetrazol-5-yl)propyl)piperidin-4-yl)benzothiazole]",M (EC1.5-20 μM)
9,"CCC(c1nnnn1Cc1cccs1)N1CCN(c2nc3ccccc3[nH]2)CC1 (stereo not shown) [Compound 9, 2-(4-(1-(1-(thiophen-2-ylmethyl)-1H-tetrazol-5-yl)propyl)piperazin-1-yl)-1H-benzimidazole]",L (EC1.5 20-50 μM)
10,"CCC(c1nnnn1Cc1cccs1)N1CCN(c2nc3ccc([N+](=O)[O-])cc3s2)CC1 (stereo not shown) [Compound 10, 6-nitro-2-(4-(1-(1-(thiophen-2-ylmethyl)-1H-tetrazol-5-yl)propyl)piperazin-1-yl)benzothiazole]",VL (EC1.5>50 μM)
11,"CCC(c1nnnn1Cc1cccs1)N1CCN(c2nc3ccc(N)cc3s2)CC1 (stereo not shown) [Compound 11, 6-amino-2-(4-(1-(1-(thiophen-2-ylmethyl)-1H-tetrazol-5-yl)propyl)piperazin-1-yl)benzothiazole]",M (EC1.5-20 μM)
12,"CCC(c1nnnn1Cc1cccs1)N1CCN(c2nc3ccc(NC(=O)CCCC[C@@H]4SC[C@@H]5NC(=O)N[C@@H]54)cc3s2)CC1 (stereo partly drawn) [Compound 12, 5-((3aS,4S,6aR)-2-oxohexahydro-1H-thieno[3,4-d]imidazol-4-yl)-N-(2-(4-(1-(1-(thiophen-2-ylmethyl)-1H-tetrazol-5-yl)propyl)piperazin-1-yl)benzothiazol-6-yl)pentanamide]",H (EC1.5<5 μM)
13,"CCC(c1nnnn1Cc1cccs1)N1CCN(c2nc3ccc(F)cc3s2)CC1 (stereo not shown) [Compound 13, 6-fluoro-2-(4-(1-(1-(thiophen-2-ylmethyl)-1H-tetrazol-5-yl)propyl)piperazin-1-yl)benzothiazole]",L (EC1.5 20-50 μM)
14,"CCC(c1nnnn1Cc1cccs1)N1CCN(c2nc3ccc(OC)cc3s2)CC1 (stereo not shown) [Compound 14, 6-methoxy-2-(4-(1-(1-(thiophen-2-ylmethyl)-1H-tetrazol-5-yl)propyl)piperazin-1-yl)benzothiazole]",M (EC1.5-20 μM)
15,"CCC(c1nnnn1Cc1cccs1)N1CCN(c2nc3ccc(Cl)cc3s2)CC1 (stereo not shown) [Compound 15, 6-chloro-2-(4-(1-(1-(thiophen-2-ylmethyl)-1H-tetrazol-5-yl)propyl)piperazin-1-yl)benzothiazole]",M (EC1.5-20 μM)
16,"CCC(c1nnnn1Cc1cccs1)N1CCN(c2nc3ccc(C)cc3s2)CC1 (stereo not shown) [Compound 16, 6-methyl-2-(4-(1-(1-(thiophen-2-ylmethyl)-1H-tetrazol-5-yl)propyl)piperazin-1-yl)benzothiazole]",L (EC1.5 20-50 μM)
17,"CCC(c1nnnn1Cc1cccs1)N1CCN(c2nc3ccc(-c4ccccc4)cc3s2)CC1 (stereo not shown) [Compound 17, 6-phenyl-2-(4-(1-(1-(thiophen-2-ylmethyl)-1H-tetrazol-5-yl)propyl)piperazin-1-yl)benzothiazole]",VL (EC1.5>50 μM)
18,"CCC(c1nnnn1Cc1cccs1)N1CCN(c2nc3ccc(NC(=O)c4ccccc4Cl)cc3s2)CC1 (stereo not shown) [Compound 18, 2-chloro-N-(2-(4-(1-(1-(thiophen-2-ylmethyl)-1H-tetrazol-5-yl)propyl)piperazin-1-yl)benzothiazol-6-yl)benzamide]",VL (EC1.5>50 μM)
19,"CCC(c1nnnn1Cc1cccs1)N1CCN(c2nc3ccc(NC(=O)c4ccccc4C)cc3s2)CC1 (stereo not shown) [Compound 19, 2-methyl-N-(2-(4-(1-(1-(thiophen-2-ylmethyl)-1H-tetrazol-5-yl)propyl)piperazin-1-yl)benzothiazol-6-yl)benzamide]",VL (EC1.5>50 μM)
20,"CCC(c1nnnn1Cc1cccs1)N1CCN(c2nc3cc(OC)c(OC)c(OC)c3s2)CC1 (stereo not shown) [Compound 20, 5.6.7-trimethaxy-2-(4-(1-(1-(thiophen-2-ylmethyl)-1H-tetrarol-5-yl)propyl)piperazin-1-yl)benzothiazole]",M (EC1.5-20 μM)
21,"CCC(c1nnnn1Cc1cccs1)N1CCN(c2nc3cccc(F)c3s2)CC1 (stereo not shown) [Compound 21, 7-fluoro-2-(4-(1-(1-(thiophen-2-ylmethyl)-1H-tetrazol-5-yl)propyl)piperazin-1-yl)benzothiazole]",H (EC1.5<5 μM)
22,"CCC(c1nnnn1Cc1cccs1)N1CCN(c2nc3c([N+](=O)[O-])cccc3s2)CC1 (stereo not shown) [Compound 22, 4-nitro-2-(4-(1-(1-(thiophen-2-ylmethyl)-1H-tetrazol-5-yl)propyl)piperazin-1-yl)benzothiazole]",L (EC1.5 20-50 μM)
23,"CCC(c1nnnn1Cc1cccs1)N1CCN(c2nc3c(N)cccc3s2)CC1 (stereo not shown) [Compound 23, 4-aminn-2-(4-(1-(1-(thiophen-2-ylmethyl) 1H-tetrazol-5-yl)propyl)piperazin-1-yl)benzothiazole]",M (EC1.5-20 μM)
24,"CCC(c1nnnn1Cc1cccs1)N1CCN(c2nc3cccnc3s2)CC1 (stereo not shown) [Compound 24, 2-(4-(1-(1-(thiophen-2-ylmethyl)-1H-tetrazol-5-yl)propyl)piperazin-1-yl)thiazolo[5,4-b]pyridine]",M (EC1.5-20 μM)
25,"CCC(c1nnnn1Cc1cccs1)N1CCN(c2nc3cc(F)ccc3s2)CC1 (stereo not shown) [Compound 25, 5-fluoro-2-(4-(1-(1-(thiophen-2-ylmethyl)-1H-tetrazol-5-yl)propyl)piperazin-1-yl)benzothiazole]",L (EC1.5 20-50 μM)
